Source: US20080153792A1, “Drug Identification and Treatment Method” (priority 2006, published 2008)
Where two headings read alike, the source gives them in different places.

Experiments:
[1] = tested on: CD1 male mice, carrageenan-λ induced pleurisy; test: carrageenan-λ induced lung (pleural cavity) inflammation in mice; type: in vivo, mouse; conditions: for number of neutrophils relative to untreated carrageenan-λ control (100%): 4 h after carrageenan
[2] = tested on: mice given a lethal amount of LPS; test: lethal shock protocol, lethal amount of bacterial LPS; type: in vivo, mouse; conditions: second assay; oral gavage 24 h before and 1 h after LPS
Method: Treatment of lethal inflammation/shock. Two compounds, 16α-bromoepiandrosterone (3β-hydroxy-16α-bromoandrostane-17-one) and 3β,16α-dihydroxy-17-oxoandrostane, were used in a lethal shock protocol. In one protocol, 3 mg of 16α-bromoepiandrosterone was administered to one group of animals by oral gavage, while another group received 3 mg of 16α-bromoepiandrosterone by subcutaneous injection. A group of control animals received a placebo control. In this protocol, the 16α-bromoepiandrosterone was administered to mice at 24 hours before and at 1 hour after administration of a lethal amount of bacterial lipopolysaccharide (LPS). By the end of the observation period, 72 hours after LPS administration, none of the vehicle treated placebo control animals had survived, while 65% of animals that received 16α-bromoepiandrosterone by oral administration survived. 50% of the animals that received 16α-bromoepiandrosterone by subcutaneous injection survived. Animals that survived for 72 hours all recovered from the LPS exposure.
In a second assay, 16α-bromoepiandrosterone or 3β,16α-dihydroxy-17-oxoandrostane was administered to mice by oral gavage at 24 hours before and 1 hour after administration of a lethal amount of LPS. A vehicle treated group of animals was used as the placebo control.

[3] = tested on: mice, LPS induced lung injury; test: lung injury by sublethal LPS to trachea and lungs, BAL cell count; type: in vivo, mouse; conditions: oral gavage 24 h before and 1 h after 100 μg LPS; 48 hours
Method: In another assay, the capacity of 16α-bromoepiandrosterone and 3β,16α-dihydroxy-17-oxoandrostane to protect against lung injury induced by exposure to a sublethal amount of LPS in mice was shown. In this assay, the compounds, sterile saline (negative control) or vehicle (vehicle control) were administered to groups of 5 mice by oral gavage at 24 hours before and 1 hour after administration of 100 μg of LPS to the trachea and lungs of animals under light anesthesia. At 48 hours the animals were sacrificed and samples were obtained from the lungs of the animals by bronchiolar alveolar lavage (BAL). The numbers of cells in the BAL fluid were counted, with high numbers of cells showing lung inflammation and damage. In this assay, cells that mediate inflammation and lung damage infiltrate into the lungs in response to the presence of the LPS. In the negative control and vehicle control groups, the BAL fluid contained about 6×10^7 cells/mL. […] Other compounds, e.g., 17α-ethynylandrost-5-ene-3β,7β,17β-triol or 17β-aminoandrost-5-ene-3β-ol, can be characterized in a similar manner.

[4] = tested on: γ-interferon production by human whole blood; test: γ-interferon production in human whole blood exposed to LPS; type: cell-based; conditions: LPS 24 hours; 16α-bromoepiandrosterone at 100 ng/mL
Method: Anti-inflammation activity in human cells in vitro. […] The amount of γ-interferon was measured in the growth medium when the cells had been incubated in the presence of LPS for 24 hours.

NF-κB = test: NF-κB-bla THP-1 β-lactamase reporter assay; type: cell-based, human
[5] = tested on: human peripheral blood mononuclear cells (PBMC); test: human mixed lymphocyte reaction (MLR); type: cell-based; conditions: either 300 nM or 30 nM; 6 days; p>0.05
Method: Human mixed lymphocyte reaction (MLR). The capacity of 3β,16α-dihydroxy-17-oxoandrostane, 3β,17β-dihydroxy-16-oxoandrostane, 17α-ethynylandrost-5-ene-3β,7β,17β-triol, and 17β-aminoandrost-5-ene-3β-ol to affect antigen specific stimulation in which human T lymphocytes respond to a specific foreign antigen (major histocompatibility complex).
Blood samples were obtained from 3 (2 males, […]) fasting, healthy human volunteers of 23-31 years old. […] The subjects were bled between […] to limit possible fluctuations in the circulating levels of hormones or cytokines that could have influenced the in vitro responses of their lymphocytes. Peripheral blood mononuclear cells (PBMC) were isolated by centrifugation on Ficoll-Hypaque (density 1.077, Biochrom AG, Berlin, Germany) gradients and resuspended in culture medium (RPMI 1640 supplemented with 2 mM L-glutamine, penicillin (100 U/mL) and streptomycin ([…]) (Invitrogen s.rl., Milan, Italy). Autologous (responder) inactivated plasma was used at 10%. Five hundred thousand responder PBMC (PBMCr) and 500,000 allogeneic irradiated (30 Gy) stimulator PBMC (PBMCs) were mixed at a ratio of 1:1 in 200 μL medium and cultured for 6 days in flat bottom 96 well plates (Nunc, Roskilde, Denmark) at a concentration of 300 nM or 30 nM for each of the 4 compounds. The compounds were dissolved in ethanol and then diluted to the desired concentration with culture medium leading to a final solution containing 0.01% of ethanol. This vehicle was used as control. Controls also included PBMCr and PBMCs cultured separately. During the last 8 hours of the culture period the PBMC were pulsed with 1 μCi/well [^3H] thymidine (Amersham, Milan, Italy). The cells were then harvested and radioactivity incorporation measured with a beta cell counter. The mean cpm of quadruplicate wells was calculated. Proliferation of T cells was expressed as a stimulation index: SI=cpm (PMBCs xPBMCr)/cpm (PBMCr)+cpm (PBMCs). Statistical analysis was performed using the Student's t test. The cpm obtained from quadruplicate of each test compound were compared to proliferative responses obtained in control PBMCr and PBMCs cultured in the presence of the vehicle. Differences were considered significant at p<0.05.

[6] = metabolic stability in liver microsomes, species not stated; type: in vitro ADME; conditions: compared with androst-5-ene-3β,17β-diol reference compound
Method: The protocol was performed as follows. […] (2) Set up samples as follows. […] (4) The internal standard/acetonitrile solution.

[7] = tested on: bone marrow-derived mast cells (BMMC); test: mast cell stimulus-coupled degranulation (glucuronidase release); type: cell-based, mouse
Method: In another protocol, a population of mast cells was cultivated from murine bone marrow as follows. Briefly, bone marrows from Balb/C mice were flushed from the femur using PBS and a 27 g needle. The cells were cultured in a mixture of ⅔ RPMI-1640 with 19% FBS and cells that secreted IL-3. The bone marrow cells were allowed to differentiate for 18-25 days in the IL-3-containing mixture before being used for experiments. Bone marrow cells cultured in this manner have a phenotype similar to mucosal mast cells and are referred to as bone marrow-derived mast cells (BMMC).
The homogeneity of the in vitro propagated mast cells was checked by conventional flow cytometry techniques and staining for cell-type specific markers. Between days 14 and 21 of propagation, mature mast cells were harvested and prepared for the test cultures. The objective was to assess of the effect of compounds such as dehydroepiandrosterone on mast cell stimulus-coupled degranulation. Prepared mast cells were dispensed into test culture wells at a density of 1×10^7 cells/mL. In control cultures, mast cells were induced to degranulate after cross linking of IgE receptors with IgE antigen-antibody complexes. […] There was no detectable degranulation of mast cells as measured by release of […] from cytosolic storage granules of the cells in the absence of the stimulus. […]

[8] = tested on: BALB/c mice, OVA sensitized and challenged; test: ovalbumin (OVA) sensitized mouse model of asthma; type: in vivo; conditions: for IL-13: s.c. once daily, dexamethasone 5 mg/kg, compound 1 mg/mouse
Method: BALB/c mice were sensitized by intraperitoneal injection with OVA (in alum adjuvant) on days 1, and 12. Airways were challenged with OVA on days 28 and 30 by delivery of OVA to the lung, or with saline. […] The remaining animals were divided into 6 groups (6 mice per group). Groups of the mice were treated once daily by subcutaneous injection as follows. Group 1 vehicle control (0.1% carboxymethyl cellulose, 0.9% saline, 2% tween 80, 0.05% phenol). Group 2 dexamethazone (5 mg/kg). Group 3 3α,16α,17α-trihydroxyandrostane (1 mg/mouse). Three animals in groups 1-3 were sacrificed on day 35 at 1 hr after final treatment and the remaining 3 animals in groups 1-3 were sacrificed on day 38.

[9] = tested on: BALB/C mice, TNP-OVA sensitized; test: reporter antigen popliteal lymph node (PLN) assay; type: in vivo, mouse; conditions: 5 μg/day by subcutaneous injection; day 5
Text: Analysis of immune suppression. Glucocorticoid steroids such as dexamethasone or hydrocortisone are typically immune suppressive and have significant toxicities associated with their use. Immune suppression was examined in a reporter antigen popliteal lymph node assay in mice essentially as previously described (C. Goebel et al., Inflamm. Res., 45(Suppl. 2):S85-S90, 1996; R. Pieters et al., Environmental Health Perspectives 107(Suppl. 5):673-677,1999). […] In this protocol, the vehicle was 0.1% carboxymethylcellulose, 0.9% saline, 2% tween 80 and 0.05% phenol, which contained 17α-ethynylandrost-5-ene-3β,7β,17β-triol in suspension in drug treated animals. Assessment of activity included (1) measuring suppression of numbers of total lymphocytes, antigen specific IgM, IgG1 and IgG2a antibody secreting cells (ASC) (ELISPOT assay) in popliteal lymph node cells; (2) analysis of cell surface marker (CD4, CD8, CD19, F480, CD80, CD86) expression by flow cytometry of living cells in suspension; and (3) IL-4, TNFα and IFNγ production by lymphocytes in vitro (ELISA).
Groups (n=5 per group) of specific pathogen free BALB/C mice were used. The Positive control group was treated with vehicle (oral gavage) and 5 μg/day dexamethasone by subcutaneous injection to induce immune suppression. Vehicle control animals (negative control) were treated with vehicle alone (oral gavage). One group of animals was treated with 17α-ethynylandrost-5-ene-3β,7β,17β-triol at 0.1 mg/day by oral gavage. Another group was treated with 1 mg/day of 17α-ethynylandrost-5-ene-3β,7β,17β-triol was administered to the animals oral gavage. The results were analyzed by two-tailed Student's t-test with equal variance. The animals were injected in the right hind footpad with 50 μL of freshly prepared sensitizing dose of TNP-OVA. Dexamethasone (decadron phosphate injection; dexamethasone sodium phosphate) was administered by subcutaneous injection into the nape of the neck daily, immediately following sensitization with TNP-OVA. 17α-Ethynylandrost-5-ene-3β,7β,17β-triol was given immediately afterwards by gavage. Five days after injection of TNP-OVA, blood was drawn by orbital puncture, and the mice were euthanized by cervical dislocation and popliteal lymph nodes were removed and separated from adherent fatty tissue. Single cell suspensions were prepared, resuspended in 1 mL PBS-BSA (1%) and counted. Cell numbers, IL-4, IL-5 and IFNγ were measured.

MG-63 cells = test: reversal of glucocorticoid effects in MG-63 osteosarcoma cells; type: cell-based, human; conditions: dexamethasone 30 nM
[10] = tested on: mice treated daily with dexamethasone; test: osteoprotegerin levels in dexamethasone treated mice; type: in vivo, mouse; conditions: vehicle and dexamethasone at 10 μg/day for 23 days (positive control group)
Method: Osteoprotegerin levels in mice that were treated with vehicle and dexamethasone at 10 μg/day (positive control group) had 3.3 pMol/L osteoprotegerin, while animals treated with vehicle, dexamethasone and 17α-ethynyl-5-androstene-3β,7β,17β-triol at 4 mg/kg/day had 6.4 pMol/L osteoprotegerin (p<0.05).

With `C[C@]12CC[C@H](O)CC1CC[C@@H]1[C@@H]2CC[C@]2(C)C(=O)[C@H](O)C[C@@H]12` (stereo partly drawn) [3β,16α-dihydroxy-17-oxoandrostane] the “neutrophils in the pleura / pleural exudate” value ([1]; 0.001 mg dose s.c.) was “inactive”, the “number of neutrophils relative to untreated carrageenan-λ control (100%)” value ([1]; 0.001 mg s.c. 24 h and 1 h before carrageenan-λ) was 97% and the “number of neutrophils relative to untreated carrageenan-λ control (100%)” value ([1]; 0.01 mg s.c. 24 h and 1 h before carrageenan-λ) was 73%. The “number of neutrophils in the pleura” value ([1]; 0.1 mg and 0.01 mg doses s.c.) was “significant reduction”, the “volume of pleural exudate” value ([1]; 0.1 mg dose s.c.) was “significantly reduced” and the “number of neutrophils relative to untreated carrageenan-λ control (100%)” value ([1]; 0.1 mg s.c. 24 h and 1 h before carrageenan-λ) was 73%. For the same molecule, the “potency compared with polyclonal anti-TNF-α antibody control” value ([1]; s.c.) was “less potent”, the “survival at 72 hours” value [2] was 50% and the “cell counts in the BAL fluid” value [3] was “about 4.4×10^7 cells/mL”. The “production of γ-interferon” value [4] was “Reduced production”, the IC50 (NF-κB; Homo sapiens, THP-1, read-out: IC50 for inhibition of NF-κB activation, after LPS stimulation, 50% of the maximum inhibition the compound can induce, averages of 2-4 assays) was greater than 10 µM and the “immune suppression in the MLR” value [5] was “not appreciably immune suppressive”. For the same molecule, the “metabolism by microsomes” value [6] was “metabolized by microsomes at a rate similar to the androst-5-ene-3β,17β-diol reference compound”.

In the case of `C[C@]12CC[C@H](O)CC1=CC[C@@H]1[C@@H]2CC[C@]2(C)C(=O)CC[C@@H]12` [dehydroepiandrosterone], the inhibition at 100 µM ([7]; Mus musculus, BMMC, 100 μM, 5 to 10 minutes before activation with anti-IgE antigen-antibody complexes) is reported as roughly 70%, the “degranulation by compound alone” value ([7]; no stimulus) is reported as “no measurable degranulation” and the IC50 (NF-κB; Homo sapiens, THP-1, read-out: IC50, this protocol) is reported as greater than 10 µM.

For `C[C@@H]1C[C@H]2[C@@H]3CCC4=CC(=O)C=C[C@]4(C)[C@@]3(F)[C@@H](O)C[C@]2(C)[C@@]1(O)C(=O)CO` [dexamethasone, reference compound], the IL-13 ([8]; day 35) was 340 pg/mL, the “IL-5 in lung tissue” value ([8]; day 38) was 145 pg/mL and the IL-13 ([8]; day 38) was 390 pg/mL. For the same molecule, the EC50 (NF-κB; Homo sapiens, THP-1, TNFα stimulation, average of 5 assays, read-out: EC50 for decreasing the effect of TNFα) was 0.00047 µM, the “maximum NF-κB inhibition” value (NF-κB; this protocol) was 100% and the “average number of lymphocytes in PLNs” value [9] was 2.9×10^6 per lymph node. The “11β-HSD mRNA” value (MG-63 cells; compounds at 10 nM in the presence of 30 nM dexamethasone, vehicle control 0.25) was 1.0 units, the IL-8 (MG-63 cells; compounds at 10 nM in the presence of 30 nM dexamethasone, vehicle control 0.90) was 0.12 units and the IL-6 (MG-63 cells; compounds at 10 nM in the presence of 30 nM dexamethasone, vehicle control 6.2) was 1.3 pg/mL. For the same molecule, the osteoprotegerin (MG-63 cells; vehicle control 445) was 280 pmol/L and the osteoprotegerin [10] was 3.3 pmol/L.
